{"source": "patent US9102623B2", "about": "“Pyridinecarboxamides, useful-plant-protecting composition comprising them and processes for their preparation and their use” (Bayer Cropscience AG, priority 2007, dated 2015)"}
{"system": "barley", "experiment": "Post-emergence safener action in barley with the herbicide mesosulfuron-methyl", "format": "in vivo", "settings": "greenhouse, visual scoring of damage", "text": "The damage to the plants is scored visually using a scale of 0-100%, in comparison to control plants:\n0%=no noticeable effect compared to the untreated plant\n100%=the treated plants dies.\nSeeds or rhizome pieces of monocotyledonous and dicotyledonous harmful plants and crop plants are placed in sandy loam soil in plastic pots, covered with soil and cultivated in the greenhouse under good growth conditions. Alternatively, harmful plants encountered in paddy rice cultivation are cultivated in pots in which the surface of the soil is covered by up to 2 cm of water. Three weeks after sowing, the test plants are treated at the three-leaf stage. The herbicide/safener active compound combinations according to the invention, formulated as emulsion concentrates, and in parallel tests the individual active compounds formulated in a corresponding manner, are sprayed at various dosages at a water application rate of […] (converted) onto the green parts of the plants, and, after the test plants were left to stand in the greenhouse for about 2 to 3 weeks under optimum growth conditions, the effect of the preparations is scored visually in comparison to untreated controls. In the case of rice or harmful plants encountered in the cultivation of rice, the active compounds are also added directly to the irrigation water (application analogously to the so-called granule application) or sprayed onto the plants and into the irrigation water. […]"}
{"smiles": "CNC(=O)c1ccc(C(F)(F)F)[nH]c1=O", "note": "[Compound 1]", "safener action for the herbicide mesosulfuron-methyl": "good safener action"}
{"smiles": "CCCNC(=O)c1ccc(C(F)(F)F)[nH]c1=O", "note": "[Compound 3]", "safener action for the herbicide mesosulfuron-methyl": "good safener action"}
{"smiles": "O=C(NC1CC1)c1ccc(C(F)(F)F)[nH]c1=O", "note": "[Compound 5]", "safener action for the herbicide mesosulfuron-methyl": "good safener action"}
{"smiles": "O=C(NC1CCC1)c1ccc(C(F)(F)F)[nH]c1=O", "note": "[Compound 7, N-Cyclobutyl-2-oxo-6-(trifluoromethyl)-1,2-dihydropyridine-3-carboxamide]", "safener action for the herbicide mesosulfuron-methyl": "good safener action"}
{"smiles": "CC(C)N(C)C(=O)c1ccc(C(F)(F)F)[nH]c1=O", "note": "[Compound 13]", "safener action for the herbicide mesosulfuron-methyl": "good safener action"}
{"smiles": "O=C(NCC1CC1)c1ccc(C(F)(F)F)[nH]c1=O", "note": "[Compound 22]", "safener action for the herbicide mesosulfuron-methyl": "good safener action"}
{"smiles": "O=C(NCC(F)(F)C(F)(F)F)c1ccc(C(F)(F)F)[nH]c1=O", "note": "[Compound 25]", "safener action for the herbicide mesosulfuron-methyl": "good safener action"}
{"smiles": "O=C(NCC(F)(F)F)c1ccc(C(F)(F)F)[nH]c1=O", "note": "[Compound 26]", "safener action for the herbicide mesosulfuron-methyl": "good safener action"}
{"smiles": "CC(C)CNC(=O)c1ccc(C(F)(F)F)[nH]c1=O", "note": "[Compound 30]", "safener action for the herbicide mesosulfuron-methyl": "good safener action"}
{"smiles": "C#CCN(C)C(=O)c1ccc(C(F)(F)F)[nH]c1=O", "note": "[Compound 40]", "safener action for the herbicide mesosulfuron-methyl": "good safener action"}
{"smiles": "COCCNC(=O)c1ccc(C(F)(F)F)[nH]c1=O", "note": "[Compound 57]", "safener action for the herbicide mesosulfuron-methyl": "good safener action"}
{"smiles": "CNC(=O)c1ccc(C(F)(F)Cl)[nH]c1=O", "note": "[Compound 115]", "safener action for the herbicide mesosulfuron-methyl": "good safener action"}
{"smiles": "CCNC(=O)c1ccc(C(F)(F)Cl)[nH]c1=O", "note": "[Compound 116]", "safener action for the herbicide mesosulfuron-methyl": "good safener action"}
{"smiles": "CCCNC(=O)c1ccc(C(F)(F)Cl)[nH]c1=O", "note": "[Compound 117]", "safener action for the herbicide mesosulfuron-methyl": "good safener action"}
{"smiles": "O=C(NC1CC1)c1ccc(C(F)(F)Cl)[nH]c1=O", "note": "[Compound 119]", "safener action for the herbicide mesosulfuron-methyl": "good safener action"}
{"smiles": "CN(C)C(=O)c1ccc(C(F)(F)Cl)[nH]c1=O", "note": "[Compound 123]", "safener action for the herbicide mesosulfuron-methyl": "good safener action"}
{"smiles": "CCN(C)C(=O)c1ccc(C(F)(F)Cl)[nH]c1=O", "note": "[Compound 124]", "safener action for the herbicide mesosulfuron-methyl": "good safener action"}
{"smiles": "CCN(CC)C(=O)c1ccc(C(F)(F)Cl)[nH]c1=O", "note": "[Compound 128]", "safener action for the herbicide mesosulfuron-methyl": "good safener action"}
{"smiles": "CCN(C(=O)c1ccc(C(F)(F)Cl)[nH]c1=O)C(C)C", "note": "[Compound 130]", "safener action for the herbicide mesosulfuron-methyl": "good safener action"}
{"smiles": "CCCCCNC(=O)c1ccc(C(F)(F)Cl)[nH]c1=O", "note": "[Compound 134]", "safener action for the herbicide mesosulfuron-methyl": "good safener action"}
{"smiles": "O=C(NCC1CC1)c1ccc(C(F)(F)Cl)[nH]c1=O", "note": "[Compound 136]", "safener action for the herbicide mesosulfuron-methyl": "good safener action"}
{"smiles": "CC(C)(C)CNC(=O)c1ccc(C(F)(F)Cl)[nH]c1=O", "note": "[Compound 138]", "safener action for the herbicide mesosulfuron-methyl": "good safener action"}
{"smiles": "C#CCN(C)C(=O)c1ccc(C(F)(F)Cl)[nH]c1=O", "note": "[Compound 154]", "safener action for the herbicide mesosulfuron-methyl": "good safener action"}
{"smiles": "CCCC(C)NC(=O)c1ccc(C(F)(F)Cl)[nH]c1=O", "note": "(centres unmarked) [Compound 157]", "safener action for the herbicide mesosulfuron-methyl": "good safener action"}
{"smiles": "CC(C)C(C)NC(=O)c1ccc(C(F)(F)Cl)[nH]c1=O", "note": "(centres unmarked) [Compound 163]", "safener action for the herbicide mesosulfuron-methyl": "good safener action"}
{"smiles": "CCC(CC)NC(=O)c1ccc(C(F)(F)Cl)[nH]c1=O", "note": "[Compound 165]", "safener action for the herbicide mesosulfuron-methyl": "good safener action"}
{"smiles": "COC(CNC(=O)c1ccc(C(F)(F)Cl)[nH]c1=O)OC", "note": "[Compound 168]", "safener action for the herbicide mesosulfuron-methyl": "good safener action"}
{"smiles": "COCCNC(=O)c1ccc(C(F)(F)Cl)[nH]c1=O", "note": "[Compound 171, 6-[Chloro(difluoro)methyl]-N-(2-methoxyethyl)-2-oxo-1,2-dihydropyridine-3-carboxamide]", "safener action for the herbicide mesosulfuron-methyl": "good safener action"}
{"smiles": "CNC(=O)c1ccc(C(F)(F)C(F)(F)F)[nH]c1=O", "note": "[Compound 342]", "safener action for the herbicide mesosulfuron-methyl": "good safener action"}
{"smiles": "CCCNC(=O)c1ccc(C(F)(F)C(F)(F)F)[nH]c1=O", "note": "[Compound 344]", "safener action for the herbicide mesosulfuron-methyl": "good safener action"}
{"smiles": "O=C(NC1CC1)c1ccc(C(F)(F)C(F)(F)F)[nH]c1=O", "note": "[Compound 346]", "safener action for the herbicide mesosulfuron-methyl": "good safener action"}
{"smiles": "CCC(C)NC(=O)c1ccc(C(F)(F)C(F)(F)F)[nH]c1=O", "note": "(centres unmarked) [Compound 382, N-(1-Methylpropyl)-2-oxo-6-(pentafluoroethyl)-1,2-dihydropyridine-3-carboxamide]", "safener action for the herbicide mesosulfuron-methyl": "good safener action"}
{"smiles": "CCCC(C)NC(=O)c1ccc(C(F)(F)C(F)(F)F)[nH]c1=O", "note": "(centres unmarked) [Compound 384]", "safener action for the herbicide mesosulfuron-methyl": "good safener action"}
{"smiles": "COCCNC(=O)c1ccc(C(F)(F)C(F)(F)F)[nH]c1=O", "note": "[Compound 398]", "safener action for the herbicide mesosulfuron-methyl": "good safener action"}
{"smiles": "COCC(C)NC(=O)c1ccc(C(F)(F)C(F)(F)F)[nH]c1=O", "note": "(centres unmarked) [Compound 405]", "safener action for the herbicide mesosulfuron-methyl": "good safener action"}
{"smiles": "COCCCNC(=O)c1ccc(C(F)(F)C(F)(F)F)[nH]c1=O", "note": "[Compound 407]", "safener action for the herbicide mesosulfuron-methyl": "good safener action"}
{"smiles": "NC(=O)c1cc(Cl)c(C(F)(F)F)[nH]c1=O", "note": "[Compound 455, 5-Chloro-2-oxo-6-(trifluoromethyl)-1,2-dihydropyridine-3-carboxamide]", "safener action for the herbicide mesosulfuron-methyl": "good safener action"}
{"smiles": "CCNC(=O)c1cc(Cl)c(C(F)(F)Cl)[nH]c1=O", "note": "[Compound 571]", "safener action for the herbicide mesosulfuron-methyl": "good safener action"}
{"smiles": "CNC(=O)c1cc(Br)c(C(F)(F)F)[nH]c1=O", "note": "[Compound 910]", "safener action for the herbicide mesosulfuron-methyl": "good safener action"}
{"smiles": "CCC(C)NC(=O)c1cc(Br)c(C(F)(F)F)[nH]c1=O", "note": "(centres unmarked) [Compound 950]", "safener action for the herbicide mesosulfuron-methyl": "good safener action"}
{"smiles": "NC(=O)c1cc(Br)c(C(F)(F)Cl)[nH]c1=O", "note": "[Compound 1023]", "safener action for the herbicide mesosulfuron-methyl": "good safener action"}
{"smiles": "CCCCNC(=O)c1cc(Br)c(C(F)(F)Cl)[nH]c1=O", "note": "[Compound 1029]", "safener action for the herbicide mesosulfuron-methyl": "good safener action"}
{"smiles": "O=C(NC1CCC1)c1cc(Br)c(C(F)(F)Cl)[nH]c1=O", "note": "[Compound 1030]", "safener action for the herbicide mesosulfuron-methyl": "good safener action"}
{"smiles": "COCC(C)NC(=O)c1cc(Br)c(C(F)F)[nH]c1=O", "note": "(centres unmarked) [Compound 1201, 5-Bromo-6-(difluoromethyl)-N-(2-methoxy-1-methylethyl)-2-oxo-1,2-dihydropyridine-3-carboxamide]", "safener action for the herbicide mesosulfuron-methyl": "good safener action"}
